The text below walks through data of patent US20100178700A1, “NOVEL THYMIC CELLULAR POPULATIONS AND USES THEREOF” (priority 2007, published 2010).

“Also recorded” adds a separate entry of the source. Read-outs that look alike come from different tables or passages of the source.

In one series the test system is Aire. The experiment in a line: Aire expression in mTEC during thymic recovery. The source says: Primary antibodies and lectins used were FITC-conjugated UEA-1 lectin (Silenus?), Ki67 (BD), PE-conjugated Ly51 (clone 6C3, Pharmingen) Ki67 (BD), I-A/I-E (BD), CD45 (LCA)(BD), PerCP Cy5.5 conjugated CD45 (BD), APC-conjugated I-A/I-E (Miltenyi), biotinylated CD31 (BD), and EpCAM (G8.8a, prepared in-house from a clone kindly donated by Dr. A. Fan) MTS15 hybridoma supernatant (prepared in-house), rat anti-mouse Aire (a kind gift from Dr. H. Scott). Secondary reagents used were FITC-conjugated anti-rat IgG2c, Streptavidin PerCPCy5.5 and Streptavidin APC.
Antibodies and conjugates were obtained from BD Pharmingen (USA) unless otherwise indicated. […] Secondary antibodies used were anti-rat IgG2c (Southern Biotech, USA), anti-rat IgG2a (Southern Biotech, USA) Streptavidin PerCP Cy5.5 and Streptavidin APC, anti-rabbit IgG-Alexa 488 (Invitrogen, USA).

The subject of series [1] is thymic epithelial cells. The conditions noted are these: mouse, in vivo.
Procedure: (§1) Control mice were injected with the same volume of PBS.
Control mice were given PBS alone.
(§2) Mice were given either 20 mg/kg Dexamethasone (Lyppards, Australia) or the equivalent volume of PBS as a single i.p. injection.
(§3) In all experiments, the final day of treatment was designated as Day 0. Mice were then humanely killed by CO2 asphyxiation at various timepoints.
(§4) Each thymus was thoroughly cleaned of fat and connective tissue and its capsule nicked with fine scissors. Each thymus was then incubated at 37° C. for 10 minutes in 2 mL of 0.125% (w/v) Collagenase D with 500 μL of 0.1% (w/v) DNAse I (both from Roche, Germany) in RPMI-1640, with regular agitation. The supernatant was collected, kept on ice, and the digestion repeated using the remaining settled thymic fragments. After 3 digestions, the remaining aggregates were incubated for 10 minutes with 1 mL of 0.125% (w/v) Collagenase/Dispase (Roche, Germany) with 500 μL 0.1% (w/v) DNAse I in RPMI-1640. Cells from all supernatant fractions were then pooled and centrifuged at 472 gmax for 5 minutes, then resuspended in cold EDTA/FACS buffer (5 mM EDTA in PBS with 2% FCS and 0.02% NaN3). Cells were filtered through 100 μm mesh. Cell counts were performed using a Z2 Coulter Counter (Beckman Coulter USA).
(§5) Cells were washed in cold EDTA/FACS buffer and 5×10^6 cells dispensed into 96 well round-bottom plates, Cells were suspended in 50 μL of a primary mAb (hybridoma supernatant or suboptimal dilution of purified antibody) or conjugate for 15 minutes at 4° C. in the dark, followed by a wash step (200 μL EDTA/FACS buffer, 1300 rpm centrifuge for 3 minutes). Secondary mAb were then added and incubated and cells were washed twice. For intracellular staining, cells were washed once in cold PBS then fixed and permeabilised using the BD Cytofix/Cytoperm kit (BD Biosciences, USA) according to the manufacturer's instructions. Cells were stained with 50 μL of primary antibody diluted in PermWash buffer for 30 mins, then washed in PermWash buffer and incubated with secondary antibody where required. Cells were washed in PermWash, then finally washed in FACS buffer, before being resuspended in 200 μL of FACS or EDTA/FACS buffer for acquisition.
(§6) A FACScalibur and CellQuest software (BD Biosciences, USA) were used for flow cytometric analysis, using four fluorescent channels (FL1 for FITC, FL2 for PE, FL3 for CyChrome/PECy5, PerCP and PI, and FL4 for APC). All compensations were performed on single colour labelling of an appropriate cell sample containing both positive and negative populations. Exclusion of non-viable and haemopoietic cells was based on forward light scatter versus side light scatter and CD45 expression respectively.
(§7) In all experiments, the final day of treatment was designated as Day 0. Mice were then humanely killed by CO2 asphyxiation at indicated timepoints.
(§8) Briefly, thymi were agitated in RPMI-1640 to flush out thymocytes. After collecting supernatant, thymic fragments were incubated individually at 37° C. for 10 minutes in 2 mL of 0.125% (w/v) Collagenase D with 500 μL of 0.1% (w/v) DNAse I (both from Roche, Germany) in RPMI-1640, with regular agitation. The supernatant was collected, kept on ice, and the digestion repeated three times, followed by a final 10 minute digestion in 1 mL of 0.125% (w/v) Collagenase/Dispase (Roche, Germany) with 500 μL 0.1% (w/v) DNAse I in RPMI-1640. The supernatant fractions were then pooled and centrifuged, keeping each thymus separate, at 472 gmax for 5 minutes, and resuspended in cold EDTA/FACS buffer (5 mM EDTA in PBS with 2% FCS and 0.02% Sodium Azide). Cells were filtered through 100 μm mesh. Cell counts were performed using a Z2 Coulter Counter (Beckman Coulter USA).
The subject of series [2] is thymocytes. Conditions: mouse, in vivo.
Procedure: (§9) Male and female C57B16 mice aged at 4-8 weeks were obtained from Monash Animal Services and housed under SPF conditions.
as §1
Control mice were given PBS alone.
as §2, §3, §4
(§10) Male and female C57B1/6J (B6) mice aged at 8-12 weeks were obtained from Monash Animal Services and housed under SPF conditions, in accordance with institutional guidelines.
as §7, §8
The subject of series [3] is thymocytes. Description: Thymus cellularity and thymocyte subsets after drug-induced thymus depletion. Conditions: mice, i.p. treatment.
Procedure: as §9, §1
Control mice were given PBS alone.
as §2, §3, §4, §10, §7, §8
Series [4] has as its system thymic epithelial cells. Description: Thymic epithelial cell (TEC) subsets by flow cytometry after drug-induced thymic damage. The conditions noted are these: for effect on TEC subsets: mice, i.p. treatment. On the technique in general: Flow cytometry measures light scatter and fluorescence of single cells or particles in a stream.
Procedure: as §1
Control mice were given PBS alone.
as §2, §3, §4, §5, §6, §7, §8
[5] abbreviates: days after cessation of treatment.

Turning to `C[C@@H]1C[C@H]2[C@@H]3CCC4=CC(=O)C=C[C@]4(C)[C@@]3(F)[C@@H](O)C[C@]2(C)[C@@]1(O)C(=O)CO` [Dexamethasone], the “effect on Aire expression” value in the series on Aire (mouse, in vivo) was “almost completely abrogated”. Also, in the series on thymic epithelial cells [1], the “recovery of mTEC-hi” value is at most 14 days, the “return of TEC subsets to normal / homeostatic proportions” value was at most 28 days and the “return of cTEC to normal levels / homeostasis” value was at most 7 days. Besides, the “return of thymic cellularity to untreated levels” value with thymocytes [2] was at most 14 days. Besides, the “effect on all thymocyte subsets” value with thymocytes [2] (ip) was “marked reduction in all thymocyte subsets”.

Consider `O=P1(N(CCCl)CCCl)NCCCO1` (centres unmarked) [Cyclophosphamide], for which, in the series on Aire (by treatment), the “effect on Aire expression” value is recorded as “almost completely abrogated”. In addition, in the series with thymocytes [3], the “effect on all thymocyte subsets” value is reported as “marked reduction in all thymocyte subsets” and the “effect on thymic cellularity / thymic involution” value was “severe thymic involution; also recorded: greatest impact on thymic cellularity”. For the same compound, in the series with thymic epithelial cells [4] (setting [5]), the “recovery of mTEC-lo cells to normal / untreated levels” value was at most 28 days and the “return of TEC subsets to normal / homeostatic proportions” value was found to be 28 days. Also, the “effect on TEC subsets” value in the series with thymic epithelial cells [4] is recorded as “mTEC-Hi were proportionally the major subset effected; also recorded: ablated all TEC subsets”. The “effect on TEC subsets” value with thymic epithelial cells [4] (listed as cyclophosphamide) is reported as “TEC as a population are significantly reduced”. Also, the “effect on non-TEC stromal cells” value in the series on thymic epithelial cells [4] (mouse, in vivo) is “not effected”.
